Measured values: article PMC5838147, “Modulation of Oral Bioavailability and Metabolism for Closely Related Cyclic Hexapeptides” (International Journal of Peptide Research and Therapeutics, 2017)
Values after ≈ are worked out from the molar mass of the structure shown. Where two headings read alike, the source gives them in different places. Where a SMILES comes first, the peptide text is derived from it. [ ]: non-standard residue; d: D form. NMeY = CN[C@@H](Cc1ccc(O)cc1)C(=O)O; NMeL = CN[C@@H](CC(C)C)C(=O)O; dNMeL = CN[C@H](CC(C)C)C(=O)O; Abu = CC[C@H](N)C(=O)O

Key:
[1] = in vivo, cited from earlier work; for CL Mouse / Vss: iv, 2.1 mg/kg; for Vss / Tmax / T1/2term: mouse; for Tmax: po, 7.1 mg/kg
[2] = mouse
Experimental: (§1) For mouse PK on peptides (4) and (5), blood concentrations versus time profiles were obtained from 2 groups of 3 male C57Bl/6 mice. In the intravenous PK group (n = 3), the compound was administered intravenous (i.v.) by bolus injection (5 mL/kg) at a dose of 1 mg/kg, solubilized in N-Methyl-2-pyrrolidone (10%) and blank plasma (90%). For oral PK, another group of 3 male C57Bl/6 mice, a dose of 3 mg/kg was orally applied (dosing volume of 10 mL/kg) as a homogenous suspension of water (99%), Tween80 (0.5%) and methylcellulose (0.5%).
(§2) For both rodents, blood samples (10–50 µL) were collected at 0.08 (i.v. only), 0.25, 0.5, 1, 2, 4, 7, and 24 h after dosing. […] Analyses of parent compound concentrations were carried out in blood using LC-MS/MS. An aliquot of 30 μL was taken and added to 200 μL MeCN (including Glyburide (c = 50 ng/mL) as internal standard) for protein precipitation. Sample analysis was performed on a LC–MS/MS system consisting of an AB SCIEX API 5500 QTrap mass spectrometer equipped with a TurboIonSpray™ interface (Framingham, USA). The MS system was connected to a HTS CTC PAL auto-sampler (Zwingen, Switzerland) and to a Flux Rheos 2200 pump system (Reinach, Switzerland). The supernatants (2 µL) were injected directly onto the LC-MS/MS system for analysis. The test articles and its internal standard were separated with a Phenomenex Kinetex C18 (50 × 2 mm ID, 2.7 µm pore size). A binary gradient with a mobile phase consisting of water (A) and acetonitrile (B) was used for the LC-separation. Both mobile phases (A) and (B) were acidified with 0.1% formic acid. The elution gradient program was as follows: [time (min), (% mobile phase B): (0, 95) (5.8, 85) (5.81, 99) (6.5, 99) (6.51, 95) (8, 95)]. The column temperature was maintained at 50 °C using a column heater. Under these experimental conditions, the LLOQ was 0.4 ng/mL.

[3] = plasma
Experimental: (§3) The values relate to single experiments. […] This has been estimated by looking at independent replicates across the assay dynamic range.
(§4) In order to make predictions of pharmacokinetic properties of these cyclic peptides, further in vitro evaluation was carried out to determine plasma-protein binding (PPB) and metabolic stability in mouse liver microsomes (MLM). […] In order to predict clearance in vivo, evaluation in vitro was assessed in MLM.

physchem = details: pH 6.8, thermodynamic from solid
Experimental: (§5) The values relate to single experiments. For the MDCK assay, the lower limit of quantification (LLOQ) was 5 nM, and for PAMPA 2 nM, respectively. […] This has been estimated by looking at independent replicates across the assay dynamic range.

in vitro [4] = details: mouse, microsomes
Experimental: as §3, §4

[5] = Supercritical fluid chromatography (SFC) retention, exposed polarity; type: physicochemical; details: Chirex 3014 column, reflects exposure of polar groups
Excerpt: Conditions for analytical supercritical fluid chromatography (SFC) were taken from previous publications (Goetz et al. [2014a], [b]). The Pirkle chiral stationary phase Chirex 3014, a silica bonded (S)-valine and (R)-1-(α-naphthyl)ethylamine with a urea linkage, was selected. A mobile phase of 15% methanol in supercritical CO2 enabled adequate separation in combination with a low-slope gradient. High retention times were mitigated by increasing the percentage of methanol in the eluent and the addition of the relatively weak salt pair ammonium formate. In the resulting chromatographic system, differences in retention depend upon hydrophobic interactions, the ability for hydrogen bonding, the presence of dipoles, and van der Waals interactions of the solutes with the stationary phase (Goetz et al. [2014a], [b]).
Next, we applied SFC-analysis to compare calculations related to polar surface area with experimentally derived data. […] Thus, calibrated SFC retention times can be compared to the SAPSA values obtained from molecular dynamics. […] As a result, shielding of polar atoms under SFC conditions is realized most optimally in the Abu derivative (4) leading to a short retention time of 2.7 min. […] However, in this case the best permeability was attributed to the Phe analogue. […] However, most likely in the case of peptide (5), for which the MDCK assay is not aligned with PAMPA and SFC, the low predictability for oral uptake would have excluded this candidate from an in vivo experiment. Taking into account the in vitro profiling, it seems possible to identify cyclic peptides with good permeability and solubility.

[6] = mouse, microsomes
Experimental: as §3, §4

in vivo = details: male, po
Experimental: as §1, §2

[7] = mouse, in vivo; for Vd / clearance: iv, 1 mg/kg; for Tmax: po
Experimental: as §1, §2

in vitro [8] = details: dog, MDCK
Experimental: as §5

[9] = rat, in vivo, po, 3 mg/kg
Experimental: (§6) For rat PK, blood concentration versus time profiles were obtained from 3 male Sprague Dawley rats. For intravenous PK, the compound was administered intravenously by bolus injection (0.5 mL/kg) at a dose of 3 mg/kg, solubilized in N-Methyl-2-pyrrolidone (30%) and PEG200 (70%). For oral PK, after a washout period of 48 h, an oral gavage was administered to the same animals at a dose of 3 mg/kg at a dosing volume of 2.5 mL/kg. The oral dose was dispersed in water (99%), Tween80 (0.5%) and methylcellulose (0.5%), forming a homogenous suspension. For both rodents, blood samples (10–50 µL) were collected at 0.08 (i.v. only), 0.25, 0.5, 1, 2, 4, 7, and 24 h after dosing. To investigate the absorption and the impact of pre-systemic metabolism, the model of portal vein cannulation in rats was applied for compounds orally dosed in a cassette. The week before the PK experiments, the rats were surgically prepared with catheter implantation into the right jugular vein (for collection of blood from the systemic circulation) and the hepatic portal vein (for collection of blood from the portal vein, i.e. after intestinal absorption and metabolism and before liver pe-systemic metabolism). After recovery, the rats were orally dosed by gavage (same dose, volume and formulation as described above), and blood samples (50 µL) were collected at 0.25, 0.5, 1, 2, 4, 7, and 24 h concomitantly from the 2 blood vessels. Analyses of parent compound concentrations were carried out in blood using LC-MS/MS. An aliquot of 30 μL was taken and added to 200 μL MeCN (including Glyburide (c = 50 ng/mL) as internal standard) for protein precipitation. Sample analysis was performed on a LC–MS/MS system consisting of an AB SCIEX API 5500 QTrap mass spectrometer equipped with a TurboIonSpray™ interface (Framingham, USA). The MS system was connected to a HTS CTC PAL auto-sampler (Zwingen, Switzerland) and to a Flux Rheos 2200 pump system (Reinach, Switzerland). The supernatants (2 µL) were injected directly onto the LC-MS/MS system for analysis. The test articles and its internal standard were separated with a Phenomenex Kinetex C18 (50 × 2 mm ID, 2.7 µm pore size). A binary gradient with a mobile phase consisting of water (A) and acetonitrile (B) was used for the LC-separation. Both mobile phases (A) and (B) were acidified with 0.1% formic acid. The elution gradient program was as follows: [time (min), (% mobile phase B): (0, 95) (5.8, 85) (5.81, 99) (6.5, 99) (6.51, 95) (8, 95)]. The column temperature was maintained at 50 °C using a column heater. Under these experimental conditions, the LLOQ was 0.4 ng/mL.
(§7) Accordingly, we decided to conduct a hepatic portal vein (H.P.V.) study in Sprague Dawley rats due to the technical difficulties associated with a smaller species like mice. Rats were equipped with double jugular vein and hepatic portal vein cannulation. A standard jugular vein cannulation experiment was run in parallel as a control.

[10] = rat, in vivo, 3 mg/kg; for clearance: iv; for AUC: po
Experimental: as §6, §7

| Structure (SMILES) | CL Mouse [1] [mL/min/kg] | Vss [1] [L/kg] | Tmax [1] [min] | T1/2term [1] [min] | class for in vivo CL in mice [2] | fraction unbound [3] | solubility thermodynamic (physchem) [µM] | microsomal CLint (in vitro [4]) [µL/min/mg] | SFC [5] [min] | clearance in the MLM assay (in words) [6] | Log PAMPA | half-life [7] [min] | Vd [7] [L/kg] | clearance [7] [mL/min/kg] | Papp (in vitro [8]) [×10⁻⁶ cm/s] | bioavailability (in vivo; C57BL/6, mouse) [%] | Tmax ([7]; 3 mg/kg) [min] | Liver first pass effect [9] [%] | clearance [10] [mL/min/kg] | AUC ([10]; Jugular vein (AuC)) [µM·h] | further results |
| --- | --- | --- | --- | --- | --- | --- | --- | --- | --- | --- | --- | --- | --- | --- | --- | --- | --- | --- | --- | --- | --- |
| CC(C)C[C@@H]1NC(=O)[C@H](Cc2ccc(O)cc2)NC(=O)[C@H]2CCCN2C(=O)[C@H](CC(C)C)NC(=O)[C@H](CC(C)C)NC(=O)[C@@H](CC(C)C)NC1=O [(1), [Tyr-Leu-D-Leu-Leu-Leu-D-Pro-]] (cyclo(LL[dP]YL[dL])) | 82 ± 15 | 0.8 ± 0.2 | 36 ± 18 | 12 ± 0 | high CL | 0.08 | 151 (≈ 108 µg/mL) | 95 | 4.8 | – | – | – | – | – | – | – | – | – | – | – | – |
| CC(C)C[C@@H]1NC(=O)[C@H](Cc2ccc(O)cc2)N(C)C(=O)[C@H]2CCCN2C(=O)[C@H](CC(C)C)NC(=O)[C@H](CC(C)C)N(C)C(=O)[C@@H](CC(C)C)N(C)C1=O [(2), [NMe-Tyr-Leu-NMe-D-Leu-NMe-Leu-Leu-D-Pro]] (cyclo(L[dNMeL][NMeL]L[dP][NMeY])) | 1 ± 0 | 0.4 ± 0.0 | 228 ± 186 | 1360 ± 324 | low CL | < 0.01 | 26 (≈ 19.6 µg/mL) | 63 | 4.1 | medium clearance | – | – | – | – | – | – | – | – | – | – | – |
| CC(C)C[C@@H]1NC(=O)[C@H](Cc2ccccc2)NC(=O)[C@H]2CCCN2C(=O)[C@H](CC(C)C)NC(=O)[C@H](CC(C)C)N(C)C(=O)[C@@H](CC(C)C)N(C)C1=O [(3), [Phe-Leu-NMe-D-Leu-NMe-Leu-Leu-D-Pro]] (cyclo(FL[dNMeL][NMeL]L[dP])) | – | – | – | – | low CL | < 0.01 | 30 (≈ 21.7 µg/mL) | 488 | 2.9 | very high CL | −4.0 | 330 ± 24 | 0.6 ± 0.1 | 2 | 11.6 | – | – | – | – | – | bioavailability (in vivo; OF1, mouse): 7 ± 2%; Tmax ([7]; 7.5 mg/kg): 18 ± 6 min |
| CC[C@@H]1NC(=O)[C@H]2CCCN2C(=O)[C@H](CC(C)C)NC(=O)[C@H](CC(C)C)N(C)C(=O)[C@@H](CC(C)C)N(C)C(=O)[C@H](CC(C)C)NC1=O [(4), [Abu-Leu-NMe-D-Leu-NMe-Leu-Leu-D-Pro]] (cyclo([Abu]L[dNMeL][NMeL]L[dP])) | – | – | – | – | medium CL | < 0.01 | 602 (≈ 399 µg/mL) | 324 | 2.7 | very high CL | −4.3 | 48 ± 12 | 2.1 ± 0.2 | 49 ± 14 | 4 | 39 ± 4 | 18 | 11 | 41 | 1.66 | AUC ([10]; Portal vein (AuC)): 1.84 µM·h |
| CC(C)C[C@@H]1NC(=O)[C@H](C)NC(=O)[C@H]2CCCN2C(=O)[C@H](CC(C)C)NC(=O)[C@H](CC(C)C)N(C)C(=O)[C@@H](CC(C)C)N(C)C1=O [(5), [Ala-Leu-NMe-D-Leu-NMe-Leu-Leu-D-Pro]] (cyclo(AL[dNMeL][NMeL]L[dP])) | – | – | – | – | high CL | < 0.01 | > 1000 | 654 | 2.8 | very high CL | −4.6 | 24 ± 6 | 2.8 ± 0.3 | 105 ± 26 | 2.7 | 23 ± 4 | 18 | 77 | 70 | 0.104 | AUC ([10]; Portal vein (AuC)): 0.449 µM·h |
